{"source": "patent US20050014680A1", "about": "“Methods and compositions for enhancing neuron growth and survival” (priority 2003, published 2005)", "molecules": {"B1": {"name": "Sema3A: semaphorin 3-A, induces growth cone collapse (protein, UniProt Q14563 21-771, looked up)", "Semaphorin-3A": "NYQNGKNNVPRLKLSYKEMLESNNVITFNGLANSSSYHTFLLDEERSRLYVGAKDHIFSFDLVNIKDFQKIVWPVSYTRRDECKWAGKDILKECANFIKVLKAYNQTHLYACGTGAFHPICTYIEIGHHPEDNIFKLENSHFENGRGKSPYDPKLLTASLLIDGELYSGTAADFMGRDFAIFRTLGHHHPIRTEQHDSRWLNDPKFISAHLISESDNPEDDKVYFFFRENAIDGEHSGKATHARIGQICKNDFGGHRSLVNKWTTFLKARLICSVPGPNGIDTHFDELQDVFLMNFKDPKNPVVYGVFTTSSNIFKGSAVCMYSMSDVRRVFLGPYAHRDGPNYQWVPYQGRVPYPRPGTCPSKTFGGFDSTKDLPDDVITFARSHPAMYNPVFPMNNRPIVIKTDVNYQFTQIVVDRVDAEDGQYDVMFIGTDVGTVLKVVSIPKETWYDLEEVLLEEMTVFREPTAISAMELSTKQQQLYIGSTAGVAQLPLHRCDIYGKACAECCLARDPYCAWDGSACSRYFPTAKRRTRRQDIRNGDPLTHCSDLHHDNHHGHSPEERIIYGVENSSTFLECSPKSQRALVYWQFQRRNEERKEEIRVDDHIIRTDQGLLLRSLQQKDSGNYLCHAVEHGFIQTLLKVTLEVIDTEHLEELLHKDDDGDGSKTKEMSNSMTPSQKVWYRDFMQLINHPNLNTMDEFCEQVWKRDRKQRRQRPGHTPGNSNKWKHLQENKKGRNRRTHEFERAPRSV"}, "B2": {"name": "BDNF: recombinant BDNF (Gibco), a neurotrophin (protein, UniProt P23560 19-247, looked up)", "Neurotrophic factor BDNF …": "APMKEANIRGQGGLAYPGVRTHGTLESVNGPKAGSRGLTSLADTFEHVIEELLDEDQKVRPNEENNKDADLYTSRVMLSSQVPLEPPLLFLLEEYKNYLDAANMSMRVRRHSDPARRGELSVCDSISEWVTAADKKTAVDMSGGTVTVLEKVPVSKGQLKQYFYETKCNPMGYTKEGCRGIDKRHWNSQCRTTQSYVRALTMDSKKRIGWRFIRIDTSCVCTLTIKRGR"}}, "key": {"[1]": {"tested_on": "dissociated E10.5 trigeminal neurons", "experiment": "Survival assay, Tunel staining of low-density dissociated E10.5 trigeminal neurons", "assay_type": "cell-based, mouse", "details": "serum-free medium, 24 hr; 150 nM Kn252a; 100 ng/ml FK506, 1 μg/ml CsA", "description": "Embryos were obtained from timed pregnancies with the noon of the plug date defined as […]. For whole-mount studies, embryos were processed and stained with anti-Neurofilament antibody (clone 2H3, DSHB) and processed for DAB or fluorescent staining. Sections were stained with anti-NF-M antibody, anti-TAG-1 antibody, anti-Lim1/2, anti-Pax7, anti-Nkx2.2, anti HNF-3b, anti-islet-1 (all from DSHB), Tuj-1 (ABR) and anti-TrkC (Chemicon). Secondary antibodies used were HRP conjugated goat anti-mouse antibody (Jackson Immunoresearch), Alexa-594 and Alexa-488 conjugated goat anti-mouse antibody (Molecular Probes) as well as anti-mouse and anti-rabbit ABC kits (Vector). Tunel assays were performed according to the manufacturer's recommendations (Roche).\nTrigeminal ganglia were incubated for 5 minutes at 37° C. with 10 mg/ml trypsin (Sigma)+DNAse (Sigma) in calcium- and magnesium-free (CMF) HBSS. After removal of the trypsin solution, the ganglia were washed 3 times with Hams F12 medium containing 10% heat-inactivated horse serum washed 3 times with CMF-HBSS and were gently triturated in 1 ml CMF-HBSS+DNAse with a fire-polished, siliconised Pasteur pipettes to give a single cell suspension. […]"}, "[2]": {"tested_on": "NFAT-dependent transcription", "experiment": "NFAT-luciferase reporter assay in cortical neurons", "assay_type": "cell-based, mouse and rat", "details": "E15.5 cultured cortical neurons, 100 ng/ml, lysed 18 hrs after stimulation", "experimental": "(§1) The reporter plasmid NFAT-Luciferase and the EGFP-NFATc4 plasmid have been described elsewhere (Graef et al., 1999). The TrkA constructs have been previously described (Ming et al., 1999). For luciferase assays the cells were treated 16 hrs after transfection with 100 ng/ml recombinant BDNF (Gibco) or 100 ng/ml recombinant NGF. For studies with FK506/CsA the cells were preincubated for 10 min with the inhibitors before stimulation and the inhibitors were present during the stimulation. Cells were lysed for luciferase assays 18 hrs after stimulation and luciferase assays performed according to standard protocols. For microscopy, neurons were fixed in 4% formaldehyde/PBS. Co-transfected m yc-epitope tagged Trk-A was visualized by staining with anti-myc antibody (clone 4E10, Pharmingen), followed by Alexa-594 conjugated goat anti-mouse antibody (Molecular Probes)."}, "NFATc4": {"tested_on": "NFATc4", "experiment": "Cytoplasmic-to-nuclear translocation of EGFP-NFATc4 in cortical neurons", "assay_type": "cell-based, mouse and rat", "experimental": "as §1"}, "[3]": {"tested_on": "trigeminal neuron growth cones", "experiment": "Growth cone morphology and collapse, trigeminal explant cubes stained with phalloidin", "assay_type": "cell-based, mouse", "details": "c2/c3/c4 triple mutant ganglia or wild-type ganglia cultured with CsA and FK506, 30 min", "experimental": "E10.5 trigeminal explants were cultured in either collagen or matrigel (Becton-Dickinson) gels in the presence of NT-3 (Gibco) and NGF (Gibco) as previously described (O'Connor and Tessier-Lavigne, 1999). The explants were then fixed in 4% PFA/PBS and axons were visualized by wholemount immunostaining with the anti-NF-M antibody (O'Connor and Tessier-Lavigne, 1999). For cultures on laminin, eight-well chamber tissue culture slides were coated with poly-L-lysine followed by laminin. Trigeminal ganglia were either dissociated or cut into small cubes and cultured in medium supplemented with NT-3 and NGF. For assessing growth cone morphology cells were fixed with 25% sucrose in 4% PFA/PBS and stained with either Alexa 594-phalloidin (Molecular Probes) alone or plus anti-III β-tubulin antibody (Tuj-1, Covance)."}}, "data": [{"molecule": "COC(=O)[C@@]1(O)C[C@H]2O[C@]1(C)n1c3ccccc3c3c4c(c5c6ccccc6n2c5c31)C(=O)NC4", "note": "[Kn252a]", "values": [{"measurement": "cell death (Tunel-positive cells)", "setting": "[1]", "value": "even greater degree of cell death"}]}, {"molecule": "NGF: recombinant NGF, nerve growth factor, a neurotrophin", "values": [{"measurement": "activation of NFAT-dependent transcription", "setting": "[2]", "value": "did not activate transcription from this reporter unless TrkA was introduced"}, {"measurement": "nuclear translocation of EGFP-NFATc4, no TrkA transfected", "setting": "NFATc4; E15.5 cortical neurons lacking TrkA (data not shown)", "value": "did not induce translocation"}, {"measurement": "nuclear translocation of EGFP-NFATc4, TrkA co-transfected", "setting": "NFATc4; cortical neurons co-transfected with EGFP-NFATc4 and TrkA, 100 ng/ml NGF", "value": "led to rapid translocation of EGFP-NFATc4 into the nucleus"}]}, {"molecule": "B1", "values": [{"measurement": "collapse of growth cones on matrigel", "setting": "[3]", "value": "induced efficient collapse of growth cones"}]}, {"molecule": "B2", "values": [{"measurement": "activation of NFAT-dependent transcription", "setting": "[2]", "value": "powerful activator of NFAT-dependent transcription"}, {"measurement": "time to nuclear translocation of EGFP-tagged NFATc4", "setting": "NFATc4; E15.5 cortical neurons, 100 ng/ml BDNF", "value": "≤ 30", "unit": "min"}]}]}
